The values that follow come from BindingDB's records for doi:10.1016/j.bmcl.2012.07.045 (Rhône-Poulenc Rorer, 2012).

For this assay, the target named is Tyrosine-protein kinase SYK (Homo sapiens) (UniProt P43405). As to the kind of experiment: Inhibition of human recombinant full-length Syk using poly-GT as substrate after 40 mins by radioactive filtration assay.
Regarding `Cc1ccnc(Nc2cccc(-c3cccc(NCCN)c3)n2)c1`, the half-inhibitory concentration (IC50) (usually the point on the concentration scale where inhibition reaches its midpoint) stood at 91 nM. With `Cc1ccnc(Nc2cccc(-c3ccnc(N4CCCNCC4)c3)n2)c1` the figure was 27 nM. `Cc1ccnc(Nc2cccc(-c3ccnc(NCCO)c3)n2)c1`: the IC50 was 1870 nM. Then `Cc1ccnc(Nc2cccc(-c3ccnc(N4CCNCC4)c3)n2)c1`, with 14 nM; and `FC(F)(F)c1ccnc(Nc2cccc(-c3ccnc(N4CCNCC4)c3)n2)c1`, with 1.8 nM; and `O=C(O)c1ccc(C(=O)Nc2cc(Nc3cnccn3)nc(-c3ccnc(N4CCNCC4)c3)c2)cc1`, with 8 nM. Then `O=C(Nc1cc(Nc2cnccn2)nc(-c2ccnc(N3CCNCC3)c2)c1)c1cccnc1`, with 6 nM; and `Cc1ccnc(Nc2cccc(-c3cccnc3)n2)c1`, with 2700 nM. For the compound `Cc1ccnc(Nc2cccc(-c3cccc(CCN)c3)n2)c1`, the IC50 stood at 160 nM.

Regarding `O=C(Nc1cc(Nc2cnccn2)nc(-c2ccnc(N3CCNCC3)c2)c1)c1cncnc1`, the IC50 was found to be 9 nM.

As to `c1cc(Nc2cnccn2)nc(-c2ccnc(N3CCNCC3)c2)c1`, the IC50 worked out at 62 nM. `Cc1ccnc(Nc2cccc(-c3ccnc(N4CCC(N)C4)c3)n2)c1` (configuration not stated): the half-inhibitory concentration (IC50) turned out to be 450 nM. Regarding `Cc1ccnc(Nc2cccc(-c3ccnc(NCCCN)c3)n2)c1`, the half-maximal inhibitory concentration (IC50) came to 528 nM. As to `c1cc(-c2cccc(Nc3cnccn3)n2)cc(N2CCNCC2)c1`, the IC50 stood at 43 nM. On to `Cc1ccnc(Nc2cccc(-c3cccc(CN)c3)n2)c1`, for which the concentration for half-maximal inhibition (IC50) was 1670 nM.

As for `O=C(Cc1cccnc1)Nc1cc(Nc2cnccn2)nc(-c2ccnc(N3CCNCC3)c2)c1`, the IC50 was 4 nM.

For `O=C(Nc1cc(Nc2cnccn2)nc(-c2ccnc(N3CCNCC3)c2)c1)C1CCNCC1`, the 50% inhibitory concentration (IC50) was determined as 4 nM. With `Nc1cc(Nc2cnccn2)nc(-c2ccnc(N3CCNCC3)c2)c1` the figure was 4 nM; with `CC(=O)N1CCC(C(=O)Nc2cc(Nc3cnccn3)nc(-c3ccnc(N4CCNCC4)c3)c2)CC1`, 5 nM.

Regarding `Oc1ccc(CNc2cc(Nc3cnccn3)nc(-c3ccnc(N4CCNCC4)c3)c2)cc1`, the IC50 stood at 8 nM. For `Cc1ccnc(Nc2cccc(-c3cccc(N)c3)n2)c1`, the 50% inhibitory concentration (IC50) came out at 3240 nM. In the case of `Cc1ccnc(Nc2cccc(-c3ccnc(NCCN)c3)n2)c1`, the IC50 came out at 200 nM. Take `Cc1ccnc(Nc2cccc(-c3ccnc(N4CCC(N)CC4)c3)n2)c1`: the concentration for half-maximal inhibition (IC50) came to 114 nM.

For the compound `Cc1cc(C(=O)Nc2cc(Nc3cnccn3)nc(-c3ccnc(N4CCNCC4)c3)c2)n(C)n1`, the 50% inhibitory concentration (IC50) is 7 nM. Consider `O=C(Nc1cc(Nc2cnccn2)nc(-c2ccnc(N3CCNCC3)c2)c1)c1ccc(C(=O)O)nc1`, for which the 50% inhibitory concentration (IC50) is 10 nM. Then `O=C(Nc1cc(Nc2cnccn2)nc(-c2ccnc(N3CCNCC3)c2)c1)c1ccccc1`, with 28 nM; and `CNc1cc(Nc2cnccn2)nc(-c2ccnc(N3CCNCC3)c2)c1`, with 4 nM.
